The subject of one assay is Bacillus subtilis. The assay is described as follows: Antibacterial activity against Bacillus subtilis KCTC 1021 after 18 hrs by serial dilution technique. Format: functional. The following applies: KCTC 1021, 18 h.
For a further assay, the system named is Staphylococcus aureus. Put plainly: Antibacterial activity against Staphylococcus aureus KCTC 1916 after 18 hrs by serial dilution technique. Format: functional. The following applies: KCTC 1916, 18 h.
The next assay relates to Escherichia coli. Put plainly: Antibacterial activity against Escherichia coli KCTC 1923 after 18 hrs by serial dilution technique. Format: functional. The conditions noted are these: KCTC 1923, 18 h.
The subject of another assay is Pseudomonas aeruginosa. Put plainly: Antibacterial activity against Pseudomonas aeruginosa KCTC 2592 after 18 hrs by serial dilution technique. The following applies: KCTC 2592, 18 h. Format: functional.
The next assay relates to ACHN. The assay is described as follows: Cytotoxicity against human ACHN at 10 ug/ml. Format: functional, cell-based.
For the next assay, the system named is HCT-15. The assay is described as follows: Cytotoxicity against human HCT15 at 10 ug/ml. Format: functional, cell-based.
The test system of another assay is MDA-MB-231. The assay is described as follows: Cytotoxicity against human MDA-MB-231 at 10 ug/ml. Format: functional, cell-based.
Another assay has as its system NCI-H23. Put plainly: Cytotoxicity against human NCI-H23 at 10 ug/ml. Type of assay: functional, cell-based.
The test system of a further assay is NUGC-3. The assay is described as follows: Cytotoxicity against human NUGC3 at 10 ug/ml. Type of assay: functional, cell-based.
A further assay deals with PC-3. The assay is described as follows: Cytotoxicity against human PC3 at 10 ug/ml. Type of assay: functional, cell-based.

Consider 1 compound from ChEMBL document CHEMBL1777743, “Macrolactin W, a new antibacterial macrolide from a marine Bacillus sp” (2011).

Converted amounts (≈) assume the structure as drawn. The source made the active and inactive calls.

By MIC is commonly meant the smallest concentration in the dilution series that meets the test's criterion for growth inhibition. The low end stands for greater potency, the high end for weaker potency. For the compound `C[C@H]1CCC/C=C\C=C\[C@H](O)C[C@@H](O)C/C=C\C=C\[C@@H](OC(=O)CCC(=O)O[C@H]2O[C@@H](CO)[C@H](O)[C@@H](O)[C@@H]2O)C/C=C/C=C\C(=O)O1` [MACROLACTIN W], the MIC in the assay on Bacillus subtilis, in the assay with Staphylococcus aureus, against Escherichia coli and against Pseudomonas aeruginosa was 64 µg/mL (≈ 96.3 µM) throughout. Moreover, the outcome in the assay with ACHN, in the assay with HCT-15, in the assay with MDA-MB-231, in the assay with NCI-H23, in the assay on NUGC-3 and in the assay with PC-3 was inactive.
